This passage reports IC50 results from US20220144839A1, “INDOLE AHR INHIBITORS AND USES THEREOF” (Ikena Oncology, Inc., priority 2018, published 2022).

This experiment deals with T1, AHR (UniProt P35869).
T1 sequence (P35869 1-848): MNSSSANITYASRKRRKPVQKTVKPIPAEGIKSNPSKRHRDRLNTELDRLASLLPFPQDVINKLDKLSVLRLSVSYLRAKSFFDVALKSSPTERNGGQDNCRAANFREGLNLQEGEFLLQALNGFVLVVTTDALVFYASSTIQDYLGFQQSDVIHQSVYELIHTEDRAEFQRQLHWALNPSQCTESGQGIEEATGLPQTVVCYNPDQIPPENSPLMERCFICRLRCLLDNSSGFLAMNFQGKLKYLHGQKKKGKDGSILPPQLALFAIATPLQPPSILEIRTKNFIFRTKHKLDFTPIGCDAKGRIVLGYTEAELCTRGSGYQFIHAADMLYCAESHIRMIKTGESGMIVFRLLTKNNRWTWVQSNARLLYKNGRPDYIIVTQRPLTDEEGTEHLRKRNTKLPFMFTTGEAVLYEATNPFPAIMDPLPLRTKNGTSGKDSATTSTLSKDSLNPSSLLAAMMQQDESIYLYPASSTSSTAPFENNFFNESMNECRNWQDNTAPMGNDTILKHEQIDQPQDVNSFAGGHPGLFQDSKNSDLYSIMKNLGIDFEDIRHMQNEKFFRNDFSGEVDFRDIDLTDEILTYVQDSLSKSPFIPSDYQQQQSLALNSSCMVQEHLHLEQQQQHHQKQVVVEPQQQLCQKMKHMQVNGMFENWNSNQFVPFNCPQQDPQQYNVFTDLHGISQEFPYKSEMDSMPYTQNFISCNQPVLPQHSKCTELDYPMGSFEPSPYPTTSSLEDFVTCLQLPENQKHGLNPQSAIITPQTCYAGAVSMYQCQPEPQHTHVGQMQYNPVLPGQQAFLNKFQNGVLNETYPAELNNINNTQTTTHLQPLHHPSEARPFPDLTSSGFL
In words: DRE-Luciferase Reporter Assay (Alternate Method), Example 1B. In kind it is cell-based. To be noted: concentration which inhibits half of the luciferase activity induced by AHR activating ligand; DRE-luciferase reporter cell line. As for the experimental part:
AHR binds to Dioxin Responsive Elements (DRE) upstream of genes that it activates. One measure of AHR activity is activation of a reporter gene, such as luciferase, downstream of one or multiple DRE elements. Luciferase activity will reflect activation and inhibition of AHR in the cells expressing his reporter.
Murine Hepa1-6 or Hepa-1c1c7 or other murine cell line with a DRE-luciferase reporter either stably or transiently transfected were plated in media in plates (96-well, 384-well or other plates) and incubated overnight at 37° C. in a C02 incubator or compound and agonist were added at the time of plating. Likewise, human HepG2 or other human cell line with a DRE-luciferase reporter either stably or transiently transfected were plated in media in plates (96-well, 384-well or other plates) and incubated overnight at 37° C. in a C02 incubator or compound and agonist were added at the time of plating.
At the time that cells are plated or following incubation overnight, an AHR activating ligand, such as TCDD, kynurenine, ITE (2-(1H-indole-3-ylcarbonyl)-4-thiazolecarboxylic methyl ester), VAF347, BNF (beta-naphthoflavone), FICZ (6-formylindolo(3,2-b) carbazole or other AHR ligands, was added with or without AHR antagonist.
Cells were incubated for 4, 15 or 24 hours or another time point and then lysed for determination of luciferase activity as a read-out of the AHR activation or inhibition. Luciferase was measured with a commercial kit such as the Promega Luciferase kit or any kit or reagents that provide the luciferin substrate for measuring luciferase activity. The level of luciferase with only activating ligand added was the maximum signal while the luciferase with no ligand was the minimum signal. IC50 values were determined as the concentration which inhibits half of the luciferase activity.
Consider `C[C@H](NCC1CC1)c1cnn2c(N[C@@H]3CCc4[nH]c5ccccc5c4C3)nc(-c3cncc(F)c3)nc12` [Compound I-20a, (3R)—N-[8-[(1S)-1-(Cyclopropylmethylamino)ethyl]-2-(5-fluoro-3-pyridyl)pyrazolo[1,5-a][1,3,5]triazin-4-yl]-2,3,4,9-tetrahydro-1H-carbazol-3-amine], for which the half-inhibitory concentration (IC50) was 1000 to 1500 nM.
The result for `C[C@@H](NCC1CC1)c1cnn2c(N[C@@H]3CCc4[nH]c5ccccc5c4C3)nc(-c3cncc(F)c3)nc12` [Compound I-20b, (3R)—N-[8-[(1R)-1-(Cyclopropylmethylamino)ethyl]-2-(5-fluoro-3-pyridyl)pyrazolo[1,5-a][1,3,5]triazin-4-yl]-2,3,4,9-tetrahydro-1H-carbazol-3-amine] reads under 500 nM; that for `CC(C)c1cnn2c(N[C@@H]3CCc4[nH]c5ccccc5c4C3)nc(-n3cccn3)nc12` [Compound I-21, (3R)—N-(8-isopropyl-2-pyrazol-1-yl-pyrazolo[1,5-a][1,3,5]triazin-4-yl)-2,3,4,9-tetrahydro-1H-carbazol-3-amine], over 1500 nM.
The result for `Cc1ccnc2c(N[C@@H]3CCc4[nH]c5ccccc5c4C3)nc(-c3cncc(F)c3)nc12` [Compound I-22, (3R)—N-[2-(5-fluoro-3-pyridyl)-8-methyl-pyrido[3,2-d]pyrimidin-4-yl]-2,3,4,9-tetrahydro-1H-carbazol-3-amine] reads under 500 nM; that for `COc1ccnc2c(N[C@@H]3CCc4[nH]c5ccccc5c4C3)nc(-c3cncc(F)c3)nc12` [Compound I-23, (3R)—N-[2-(5-fluoro-3-pyridyl)-8-methoxy-pyrido[3,2-d]pyrimidin-4-yl]-2,3,4,9-tetrahydro-1H-carbazol-3-amine], under 500 nM; that for `CC(C)c1cnn2c(N[C@@H]3CCc4[nH]c5c(O)cccc5c4C3)nc(-c3cncc(F)c3)nc12` [Compound I-24a, (6R)-6-[[2-(5-fluoro-3-pyridyl)-8-isopropyl-pyrazolo[1,5-a][1,3,5]triazin-4-yl]amino]-6,7,8,9-tetrahydro-5H-carbazol-1-ol], over 1500 nM.
On to `CC(C)c1cnn2c(N[C@H]3CCc4[nH]c5c(O)cccc5c4C3)nc(-c3cncc(F)c3)nc12` [Compound I-24b, (6S)-6-[[2-(5-fluoro-3-pyridyl)-8-isopropyl-pyrazolo[1,5-a][1,3,5]triazin-4-yl]amino]-6,7,8,9-tetrahydro-5H-carbazol-1-ol], for which the IC50 was over 1500 nM.
The figure for `C[C@@H](CO)c1cnn2c(N[C@@H]3CCc4[nH]c5ccccc5c4C3)nc(-c3cncc(F)c3)nc12` [Compound I-25a, (2R)-2-[2-(5-Fluoro-3-pyridyl)-4-[[(3R)-2,3,4,9-tetrahydro-1H-carbazol-3-yl]amino]pyrazolo[1,5-a][1,3,5]triazin-8-yl]propan-1-ol] is under 500 nM.
The result for `C[C@H](CO)c1cnn2c(N[C@@H]3CCc4[nH]c5ccccc5c4C3)nc(-c3cncc(F)c3)nc12` [Compound I-25b, (2S)-2-[2-(5-Fluoro-3-pyridyl)-4-[[(3R)-2,3,4,9-tetrahydro-1H-carbazol-3-yl]amino]pyrazolo[1,5-a][1,3,5]triazin-8-yl]propan-1-ol] reads under 500 nM.
The result for `Fc1cc(-c2nc(N[C@@H]3CCc4[nH]c5ccccc5c4C3)n3nccc3n2)cnc1[C@H]1CCCN1` [Compound I-26b, (3R)—N-[2-[5-Fluoro-6-[(2R)-pyrrolidin-2-yl]-3-pyridyl]pyrazolo[1,5-a][1,3,5]triazin-4-yl]-2,3,4,9-tetrahydro-1H-carbazol-3-amine] reads over 1500 nM.
Compound `CC(C)c1cnn2c(N[C@@H]3CCc4[nH]c5cc(O)ccc5c4C3)nc(-c3cncc(F)c3)nc12` [Compound I-27a, (6R)-6-[[2-(5-Fluoro-3-pyridyl)-8-isopropyl-pyrazolo[1,5-a][1,3,5]triazin-4-yl]amino]-6,7,8,9-tetrahydro-5H-carbazol-2-ol] returned a concentration for half-maximal inhibition (IC50) of over 1500 nM.
The figure for `CC(C)c1cnn2c(N[C@H]3CCc4[nH]c5cc(O)ccc5c4C3)nc(-c3cncc(F)c3)nc12` [Compound I-27b, (6S)-6-[[2-(5-Fluoro-3-pyridyl)-8-isopropyl-pyrazolo[1,5-a][1,3,5]triazin-4-yl]amino]-6,7,8,9-tetrahydro-5H-carbazol-2-ol] is over 1500 nM; for `CC(C)c1cnn2c(N[C@H]3CCc4[nH]c5cccc(O)c5c4C3)nc(-c3cncc(F)c3)nc12` [Compound I-29a, (6S)-6-[[2-(5-Fluoro-3-pyridyl)-8-isopropyl-pyrazolo[1,5-a][1,3,5]triazin-4-yl]amino]-6,7,8,9-tetrahydro-5H-carbazol-4-ol] it is over 1500 nM.
The result for `CC(C)c1cnn2c(N[C@@H]3CCc4[nH]c5cccc(O)c5c4C3)nc(-c3cncc(F)c3)nc12` [Compound I-29b, (6R)-6-[[2-(5-Fluoro-3-pyridyl)-8-isopropyl-pyrazolo[1,5-a][1,3,5]triazin-4-yl]amino]-6,7,8,9-tetrahydro-5H-carbazol-4-ol] reads over 1500 nM; that for `Fc1cncc(-c2nc(N[C@@H]3CCc4[nH]c5ccccc5c4C3)n3nc4c(c3n2)CCCC4)c1` [Compound I-30, 2-(5-fluoro-3-pyridyl)-N-[(3R)-2,3,4,9-tetrahydro-1H-carbazol-3-yl]-7,8,9,10-tetrahydro-[1,3,5]triazino[1,2-b]indazol-4-amine], 500 to 1000 nM; that for `Nc1cnn2c(N[C@@H]3CCc4[nH]c5ccccc5c4C3)nc(-c3cncc(F)c3)nc12` [Compound I-31, 2-(5-Fluoro-3-pyridyl)-N4-[(3R)-2,3,4,9-tetrahydro-1H-carbazol-3-yl]pyrazolo[1,5-a][1,3,5]triazine-4,8-diamine], under 500 nM.
`C[C@H](N)c1cnn2c(N[C@@H]3CCc4[nH]c5ccccc5c4C3)nc(-c3cncc(F)c3)nc12` [Compound I-32a, (3R)—N-[8-[(1S)-1-Aminoethyl]-2-(5-fluoro-3-pyridyl)pyrazolo[1,5-a][1,3,5]triazin-4-yl]-2,3,4,9-tetrahydro-1H-carbazol-3-amine]: the concentration for half-maximal inhibition (IC50) is under 500 nM.
The result for `C[C@@H](N)c1cnn2c(N[C@@H]3CCc4[nH]c5ccccc5c4C3)nc(-c3cncc(F)c3)nc12` [Compound I-32b, (3R)—N-[8-[(1R)-1-aminoethyl]-2-(5-fluoro-3-pyridyl)pyrazolo[1,5-a][1,3,5]triazin-4-yl]-2,3,4,9-tetrahydro-1H-carbazol-3-amine] reads under 500 nM.
The result for `Fc1cncc(-c2nc(N[C@@H]3CCc4[nH]c5ccccc5c4C3)n3nc4c(c3n2)COCC4)c1` [Compound I-33, 2-(5-fluoro-3-pyridyl)-N-[(3R)-2,3,4,9-tetrahydro-1H-carbazol-3-yl]-8,10-dihydro-7H-pyrano[2,3]pyrazolo[2,4-c][1,3,5]triazin-4-amine] reads under 500 nM.
The figure for `CC(C)c1cnn2c(N[C@H]3CCc4[nH]c5ccc(O)cc5c4C3)nc(-c3cncc(F)c3)nc12` [Compound I-34a, (6S)-6-[[2-(5-Fluoro-3-pyridyl)-8-isopropyl-pyrazolo[1,5-a][1,3,5]triazin-4-yl]amino]-6,7,8,9-tetrahydro-5H-carbazol-3-ol] is over 1500 nM; for `CC(C)c1cnn2c(N[C@@H]3CCc4[nH]c5ccc(O)cc5c4C3)nc(-c3cncc(F)c3)nc12` [Compound I-34b, (6R)-6-[[2-(5-Fluoro-3-pyridyl)-8-isopropyl-pyrazolo[1,5-a][1,3,5]triazin-4-yl]amino]-6,7,8,9-tetrahydro-5H-carbazol-3-ol] it is over 1500 nM.
